Key:
Assay in all cases: relative viability (nuclei count vs DMSO), 5 days (fraction); higher = more cells survive
Dinaciclib + Bortezomib = compound: CCc1cnn2c(NCc3ccc[n+]([O-])c3)cc(N3CCCC[C@H]3CCO)nc12 [Dinaciclib] + CC(C)C[C@H](NC(=O)[C@H](Cc1ccccc1)NC(=O)c1cnccn1)B(O)O [Bortezomib] (partner 0.002 µM)
Summary of the method: (§1)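 Values are medians from duplicate plates. Each reflects relative viability, defined as the nuclei count of treated wells over that of vehicle wells. Lung cancer cell lines in 1536-well plates were pin-tool dosed one day after seeding with one drug alone or with a fixed anchor-drug dose plus five library-drug doses (not always all listed) in √10 steps, then fixed, stained and imaged at 4× after 5 days.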

Dinaciclib + Luminespib = compound: CCc1cnn2c(NCc3ccc[n+]([O-])c3)cc(N3CCCC[C@H]3CCO)nc12 [Dinaciclib] + CCNC(=O)c1noc(-c2cc(C(C)C)c(O)cc2O)c1-c1ccc(CN2CCOCC2)cc1 [Luminespib] (partner 0.01 µM)
Summary of the method: as §1

Dinaciclib + Foretinib = compound: CCc1cnn2c(NCc3ccc[n+]([O-])c3)cc(N3CCCC[C@H]3CCO)nc12 [Dinaciclib] + COc1cc2c(Oc3ccc(NC(=O)C4(C(=O)Nc5ccc(F)cc5)CC4)cc3F)ccnc2cc1OCCCN1CCOCC1 [Foretinib] (partner 0.25 µM)
Summary of the method: as §1

Dinaciclib + Tozasertib = compound: CCc1cnn2c(NCc3ccc[n+]([O-])c3)cc(N3CCCC[C@H]3CCO)nc12 [Dinaciclib] + Cc1cc(Nc2cc(N3CCN(C)CC3)nc(Sc3ccc(NC(=O)C4CC4)cc3)n2)n[nH]1 [Tozasertib] (partner 0.1 µM)
Summary of the method: as §1

Dinaciclib + Vorinostat = compound: CCc1cnn2c(NCc3ccc[n+]([O-])c3)cc(N3CCCC[C@H]3CCO)nc12 [Dinaciclib] + O=C(CCCCCCC(=O)Nc1ccccc1)NO [Vorinostat] (partner 1 µM)
Summary of the method: as §1

Cell Line	relative viability (Dinaciclib + Bortezomib; first compound 0.009487 µM)	relative viability (Dinaciclib + Bortezomib; first compound 0.03 µM)	relative viability (Dinaciclib + Bortezomib; first compound 0.09487 µM)	relative viability (Dinaciclib + Bortezomib; first compound 0.3 µM)	relative viability (Dinaciclib + Luminespib; first compound 0.009487 µM)	relative viability (Dinaciclib + Luminespib; first compound 0.03 µM)	relative viability (Dinaciclib + Luminespib; first compound 0.09487 µM)	relative viability (Dinaciclib + Luminespib; first compound 0.3 µM)	relative viability (Dinaciclib + Foretinib; first compound 0.009487 µM)	relative viability (Dinaciclib + Foretinib; first compound 0.03 µM)	relative viability (Dinaciclib + Foretinib; first compound 0.09487 µM)	relative viability (Dinaciclib + Foretinib; first compound 0.3 µM)	relative viability (Dinaciclib + Tozasertib; first compound 0.009487 µM)	relative viability (Dinaciclib + Tozasertib; first compound 0.03 µM)	relative viability (Dinaciclib + Tozasertib; first compound 0.09487 µM)	relative viability (Dinaciclib + Tozasertib; first compound 0.3 µM)	relative viability (Dinaciclib + Vorinostat; first compound 0.009487 µM)	relative viability (Dinaciclib + Vorinostat; first compound 0.03 µM)	relative viability (Dinaciclib + Vorinostat; first compound 0.09487 µM)	relative viability (Dinaciclib + Vorinostat; first compound 0.3 µM)
NCI-H3122	1	0.195	0.139	0.151	0.115	0.122	0.0991	0.0858	1.02	0.131	0.0904	0.0928	0.169	0.091	0.0926	0.0829	1.05	0.095	0.0953	0.0902
PC-3 [JPC-3]	0.679	0.791	0.226	0.231	0.668	0.417	0.219	0.199	1.09	0.93	0.254	0.224	0.889	0.745	0.274	0.215	0.915	0.56	0.277	0.323
PC-14	0.807	0.109	0.0534	0.0475	0.146	0.0837	0.0681	0.0507	0.841	0.543	0.0986	0.0886	0.454	0.0566	0.0448	0.038	0.737	0.251	0.0426	0.0456
RERF-LC-KJ	1.1	0.327	0.157	0.173	0.452	0.195	0.179	0.208	0.902	0.635	0.15	0.101	0.45	0.18	0.179	0.167	0.652	0.373	0.141	0.135
SK-LU-1	1.09	0.17	0.188	0.193	0.198	0.138	0.115	0.118	0.579	0.158	0.139	0.121	0.329	0.132	0.131	0.119	0.65	0.241	0.233	0.208
SW 1573	0.777	0.104	0.0824	0.0954	0.126	0.0666	0.0548	0.0868	0.827	0.526	0.0711	0.0971	0.141	0.0738	0.0542	0.0806	0.444	0.071	0.0779	0.0742
UMC-11	0.196	0.107	0.108	0.131	0.271	0.177	0.158	0.174	0.277	0.189	0.166	0.19	0.2	0.215	0.202	0.173	0.229	0.174	0.167	0.167

Reference: the supplement of paper PMC10307832
